# US12441768B2, “Compositions and methods for treating endometriosis” (EndoMet Biosciences, Inc., priority 2018, dated 2025)
# Where a SMILES comes first, the peptide text is derived from it.
# Target: T1, β-catenin (Homo sapiens, UniProt P35222)
# T1 sequence (P35222 1-781): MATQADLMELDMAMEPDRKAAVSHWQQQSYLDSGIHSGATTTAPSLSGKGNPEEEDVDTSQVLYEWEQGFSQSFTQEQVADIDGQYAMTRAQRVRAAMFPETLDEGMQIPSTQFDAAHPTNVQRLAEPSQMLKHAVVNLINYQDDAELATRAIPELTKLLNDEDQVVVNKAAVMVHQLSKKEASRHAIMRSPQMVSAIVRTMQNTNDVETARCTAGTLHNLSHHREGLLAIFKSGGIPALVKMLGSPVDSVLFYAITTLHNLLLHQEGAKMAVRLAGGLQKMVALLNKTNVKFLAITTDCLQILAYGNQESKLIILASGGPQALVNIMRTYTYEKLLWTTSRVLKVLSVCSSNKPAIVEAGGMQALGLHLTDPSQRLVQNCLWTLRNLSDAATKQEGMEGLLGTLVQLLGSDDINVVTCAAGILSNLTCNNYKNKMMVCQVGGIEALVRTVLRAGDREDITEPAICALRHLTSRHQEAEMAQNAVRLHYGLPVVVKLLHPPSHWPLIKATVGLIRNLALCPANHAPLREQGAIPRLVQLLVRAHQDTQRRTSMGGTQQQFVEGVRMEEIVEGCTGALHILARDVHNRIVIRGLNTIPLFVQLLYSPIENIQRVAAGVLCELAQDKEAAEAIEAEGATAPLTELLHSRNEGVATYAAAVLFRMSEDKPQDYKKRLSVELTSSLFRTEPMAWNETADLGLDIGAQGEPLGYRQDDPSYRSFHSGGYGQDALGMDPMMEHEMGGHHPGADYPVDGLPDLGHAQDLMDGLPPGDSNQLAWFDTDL
# Assay: KD50 measurement using competitive fluorescence polarization (FP) with labelled TCF4
# Assay type: binding
# Settings: fluorescence polarization, β-catenin; for Kd: read-out: β-Cat FP KD
# Summary of the method: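 First, β-catenin at 100 nM is mixed with 5 nM labelled TCF4 at room temperature. Next, compound is added across serial dilutions (10 nM to 30 uM). Finally, fluorescence polarization is measured (ex 470 nm, em 520 nm); experiments are done three times.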
Compound,Kd,β-Cat FP Hill slope
"CCCCCCCCCCCC(=O)N[C@@H](Cc1c[nH]c2ccccc12)C(=O)N(C)[C@@H](C)C(=O)N[C@@H](CCC(N)=O)C(=O)N[C@H]1CCCCNC(=O)CC[C@@H](C(=O)N[C@@H](Cc2c[nH]cn2)C(=O)N[C@H](C(=O)N[C@@H](CCC(N)=O)C(=O)N[C@@H](CCCNC(=N)N)C(=O)N[C@H](C(=O)N[C@@H](Cc2c[nH]c3ccccc23)C(=O)NCC(N)=O)C(C)C)C2CCCCC2)NC(=O)[C@H](CC(N)=O)NC(=O)[C@H](CC(C)C)NC(=O)[C@H]([C@@H](C)CC)NC1=O [compound 436] (HELM PEPTIDE1{[CCCCCCCCCCCC(=O)[*:2]].W.[meA].Q.K.I.L.N.E.H.[O=C([C@@H](N[*:1])C1CCCCC1)[*:2]].Q.R.V.W.G.[am]}$PEPTIDE1,PEPTIDE1,5:R3-9:R3$$$V2.0)",> 30 µM,
"CC[C@H](C)[C@@H]1NC(=O)[C@H](CC(C)C)NC(=O)[C@H](Cc2ccc(O)cc2)NC(=O)[C@H](Cc2c[nH]c3ccccc23)NC(=O)[C@H](CCSC)NC(=O)[C@H](CCCNC(=N)N)NC(=O)[C@H](CO)NC(=O)[C@@H](N)CCCNC(=O)[C@H](Cc2c[nH]c3ccccc23)NC(=O)[C@H](Cc2ccccc2)NC(=O)[C@H](CO)NC1=O [compound 277] (HELM PEPTIDE1{[Orn].S.R.M.W.Y.L.I.S.F.W}$PEPTIDE1,PEPTIDE1,1:R3-11:R2$$$V2.0)",> 30 µM,0.7
CC[C@H](C)[C@H](NC(=O)[C@H](CC(C)C)NC(=O)[C@@H](N)Cc1ccccc1)C(=O)N[C@@H](CO)C(=O)N[C@@H](Cc1ccccc1)C(=O)N[C@@H](Cc1c[nH]c2ccccc12)C(=O)NCC(=O)O [compound 241] (H-FLISFWG-OH),1 to 10 µM,0.7
CC[C@H](C)[C@H](NC(=O)[C@H](C)NC(=O)[C@H](Cc1ccccc1)NC(=O)[C@H](Cc1c[nH]c2ccccc12)NC(=O)[C@@H](N)CCSC)C(=O)N[C@@H](CO)C(=O)N[C@@H](Cc1ccccc1)C(=O)N[C@@H](Cc1c[nH]c2ccccc12)C(=O)NCC(=O)O [compound 12] (H-MWFAISFWG-OH),1 to 10 µM,0.5
"CCCCCCCCCCCC(=O)N[C@@H](Cc1c[nH]c2ccccc12)C(=O)N(C)[C@@H](C)C(=O)N[C@H]1CCC(=O)NCCCC[C@@H](C(=O)N[C@@H](CCC(=O)O)C(=O)N[C@@H](Cc2c[nH]cn2)C(=O)N[C@H](C(=O)N[C@@H](CCC(N)=O)C(=O)N[C@@H](CCCNC(=N)N)C(=O)N[C@H](C(=O)N[C@@H](Cc2c[nH]c3ccccc23)C(=O)NCC(N)=O)C(C)C)C(C)C)NC(=O)[C@H](CC(C)C)NC(=O)[C@H]([C@@H](C)CC)NC(=O)[C@H](CO)NC1=O [compound 451] (HELM PEPTIDE1{[CCCCCCCCCCCC(=O)[*:2]].W.[meA].E.S.I.L.K.E.H.V.Q.R.V.W.G.[am]}$PEPTIDE1,PEPTIDE1,4:R3-8:R3$$$V2.0)",1 to 10 µM,
"CC[C@H](C)[C@@H]1NC(=O)[C@H](CC(C)C)NC(=O)[C@H](Cc2ccccc2)NC(=O)[C@H](Cc2c[nH]c3ccccc23)NC(=O)[C@@H](N)CCCCNC(=O)CC[C@@H](C(=O)NCC(=O)O)NC(=O)[C@H](Cc2c[nH]c3ccccc23)NC(=O)[C@H](Cc2ccccc2)NC(=O)[C@H](CS)NC1=O [compound 272] (HELM PEPTIDE1{K.W.F.L.I.C.F.W.E.G}$PEPTIDE1,PEPTIDE1,1:R3-9:R3$$$V2.0)",1 to 10 µM,0.84
"CC[C@H](C)[C@@H]1NC(=O)[C@H](CC(C)C)NC(=O)[C@H](Cc2ccccc2)NC(=O)[C@H](Cc2c[nH]c3ccccc23)NC(=O)[C@@H](N)CCCCNC(=O)CC[C@@H](C(=O)N[C@@H](Cc2c[nH]c3ccccc23)C(=O)NCC(=O)O)NC(=O)[C@H](CO)NC1=O [compound 228] (HELM PEPTIDE1{K.W.F.L.I.S.E.W.G}$PEPTIDE1,PEPTIDE1,1:R3-7:R3$$$V2.0)",> 30 µM,0.2
CC[C@H](C)[C@H](NC(=O)[C@H](CC(C)C)NC(=O)[C@@H](NC(=O)[C@H](Cc1c[nH]c2ccccc12)NC(=O)[C@H](CCSC)N(C)C)[C@@H](C)CC)C(=O)N[C@@H](CO)C(=O)N[C@@H](Cc1ccccc1)C(=O)N[C@@H](Cc1c[nH]c2ccccc12)C(=O)NCC(=O)O [compound 264] (HELM PEPTIDE1{[CSCC[C@@H](C(=O)[*:2])N(C)C].W.I.L.I.S.F.W.G}$$$$V2.0),1 to 10 µM,0.7
"CC[C@H](C)[C@H](NC(=O)[C@H](CC(C)C)NC(=O)[C@@H]1CCC(=O)NCCCC[C@H](N)C(=O)N[C@@H](Cc2c[nH]c3ccccc23)C(=O)N1)C(=O)N[C@@H](CO)C(=O)N[C@@H](Cc1ccccc1)C(=O)N[C@@H](Cc1c[nH]c2ccccc12)C(=O)NCC(=O)O [compound 232] (HELM PEPTIDE1{K.W.E.L.I.S.F.W.G}$PEPTIDE1,PEPTIDE1,1:R3-3:R3$$$V2.0)",1 to 10 µM,2.73
"CC[C@@H]1NC(=O)[C@H]([C@@H](C)CC)NC(=O)[C@H](CC(C)C)NC(=O)[C@H](Cc2ccccc2)NC(=O)[C@H](Cc2c[nH]c3ccccc23)NC(=O)[C@@H](NC(C)=O)CCCCNC(=O)C[C@@H](C(=O)O)NC(=O)[C@H](Cc2c[nH]c3ccccc23)NC(=O)[C@H](C)NC1=O [compound 243] (HELM PEPTIDE1{[ac].K.W.F.L.I.[Abu].A.W.D}$PEPTIDE1,PEPTIDE1,2:R3-10:R3$$$V2.0)",10 to 30 µM,0.7
"CC[C@H](C)[C@@H]1NC(=O)[C@@H](NC(=O)[C@H](CCC(N)=O)NC(=O)C(C)(C)NC(=O)[C@H](Cc2c[nH]c3ccccc23)NC(C)=O)CCCCNC(=O)C[C@@H](C(=O)N[C@@H](Cc2c[nH]cn2)C(=O)N[C@H](C(=O)N[C@@H](CCC(N)=O)C(=O)N[C@@H](CCCNC(=N)N)C(=O)N[C@H](C(=O)N[C@@H](Cc2c[nH]c3ccccc23)C(N)=O)C(C)C)C2CCCCC2)NC(=O)[C@H](CC(N)=O)NC(=O)[C@H](CC(C)C)NC1=O [compound 455] (HELM PEPTIDE1{[ac].W.[Aib].Q.K.I.L.N.D.H.[O=C([C@@H](N[*:1])C1CCCCC1)[*:2]].Q.R.V.W.[am]}$PEPTIDE1,PEPTIDE1,5:R3-9:R3$$$V2.0)",< 0.4 µM,1.03

# Second part, the compound after the results:
Kd,β-Cat FP Hill slope,Compound
< 0.4 µM,0.76,"CC[C@H](C)[C@H](NC(=O)[C@H](CO)NC(=O)[C@H](CCC(N)=O)NC(=O)[C@@H]1CCCN1C(=O)[C@H](Cc1c[nH]c2ccccc12)NC(C)=O)C(=O)N[C@@H](CC(C)C)C(=O)N[C@@H](CC(=O)O)C(=O)N[C@H]1CCCCNC(=O)C[C@@H](C(=O)N[C@H](C(=O)N[C@@H](Cc2c[nH]c3ccccc23)C(N)=O)C(C)C)NC(=O)[C@H](CCC(N)=O)NC(=O)[C@H](C2CCCCC2)NC(=O)[C@H](Cc2c[nH]cn2)NC1=O [compound 462] (HELM PEPTIDE1{[ac].W.P.Q.S.I.L.D.K.H.[O=C([C@@H](N[*:1])C1CCCCC1)[*:2]].Q.D.V.W.[am]}$PEPTIDE1,PEPTIDE1,9:R3-13:R3$$$V2.0)"
< 0.4 µM,0.86,"CC[C@H](C)[C@H](NC(=O)[C@H](CO)NC(=O)[C@H](CCC(N)=O)NC(=O)[C@@H]1CCCN1C(=O)[C@H](Cc1c[nH]c2ccccc12)NC(C)=O)C(=O)N[C@@H](CC(C)C)C(=O)N[C@@H](CC(=O)O)C(=O)N[C@H]1CCC(=O)NCCCC[C@@H](C(=O)N[C@H](C(=O)N[C@@H](Cc2c[nH]c3ccccc23)C(N)=O)C(C)C)NC(=O)[C@H](CCC(N)=O)NC(=O)[C@H](C2CCCCC2)NC(=O)[C@H](Cc2c[nH]cn2)NC1=O [compound 468] (HELM PEPTIDE1{[ac].W.P.Q.S.I.L.D.E.H.[O=C([C@@H](N[*:1])C1CCCCC1)[*:2]].Q.K.V.W.[am]}$PEPTIDE1,PEPTIDE1,9:R3-13:R3$$$V2.0)"
< 0.4 µM,0.88,H-GGGDDLGANDELISFKDEGEQEEKSSENSSAERDLADVKSSLVNEK-NH2 [compound 266]
< 0.4 µM,0.74,"CC[C@H](C)[C@@H]1NC(=O)[C@H](CC(C)C)NC(=O)[C@H](Cc2ccccc2)NC(=O)[C@H](Cc2c[nH]c3ccccc23)NC(=O)[C@@H](N)CC(=O)NCCCC[C@@H](C(=O)O)NC(=O)[C@H](Cc2c[nH]c3ccccc23)NC(=O)[C@H](C)NC(=O)[C@H](CS)NC1=O [compound 233] (HELM PEPTIDE1{D.W.F.L.I.C.A.W.K}$PEPTIDE1,PEPTIDE1,1:R3-9:R3$$$V2.0)"
< 0.4 µM,,"CCCCCCCCCCCC(=O)N[C@@H](Cc1c[nH]c2ccccc12)C(=O)N1CCC[C@H]1C(=O)N[C@@H](CCC(N)=O)C(=O)N[C@@H](CO)C(=O)N[C@H](C(=O)N[C@@H](CC(C)C)C(=O)N[C@@H](CC(=O)O)C(=O)N[C@H]1CCC(=O)NCCCC[C@@H](C(=O)N[C@H](C(=O)N[C@@H](Cc2c[nH]c3ccccc23)C(=O)NCC(N)=O)C(C)C)NC(=O)[C@H](CCC(N)=O)NC(=O)[C@H](C2CCCCC2)NC(=O)[C@H](Cc2c[nH]cn2)NC1=O)[C@@H](C)CC [compound 473] (HELM PEPTIDE1{[CCCCCCCCCCCC(=O)[*:2]].W.P.Q.S.I.L.D.E.H.[O=C([C@@H](N[*:1])C1CCCCC1)[*:2]].Q.K.V.W.G.[am]}$PEPTIDE1,PEPTIDE1,9:R3-13:R3$$$V2.0)"
